The test system of series [1] is Dengue-2 (Strain New Guinea C). Briefly: Dengue-2 viral yield assay in Vero cells. The conditions noted are these: Dengue virus, read-out: Activity (anti-dengue 2 viral activity, EC50). It counts as cell-based. On the procedure:
Compounds that were active in the primary screen were tested for activity in viral yield assays. […] Vero cells in 12-well plates were infected with dengue-2 virus at a multiplicity of infection (MOI) of 0.1, treated with compound (or DMSO as a control), incubated at 37° C., harvested 48 hours post infection and titered on Vero cells as described above. The EC50 was calculated through ExcelFit. Those compounds with activity below 1 μM are indicated with “A”, those with activity between 1 and 10 μM are indicated with “B”, and those with activity between 10 and 25 μM with “C”.

In series [2] the test system is all four serotypes of dengue. Nature of the series: Yield assay against each serotype of dengue virus in vero cells. It counts as cell-based. The conditions noted are these: FIG. 1. On the procedure:
Initially, the chemical structures of the hit compounds were examined for chemical tractability. […] Hits that passed this medicinal chemistry filter were evaluated for their potency. Compound potency was determined by evaluating inhibitory activity across a broad range of concentrations. Nonlinear regression was used to generate best-fit inhibition curves and to calculate the 50% effective concentration (EC50). The selectivity or specificity of a given compound is typically expressed as a ratio of its cytotoxicity to its biological effect. A cell proliferation assay is used to calculate a 50% cytotoxicity concentration (CC50); the ratio of this value to the EC50 is referred to as the therapeutic index (T.I.=CC50/EC50). Two types of assays have been used to determine cytotoxicity, both of which are standard methods for quantitating the reductase activity produced in metabolically active cells (30). One is a colorimetric method that measures the reduction of 3-(4,5-dimethylthiazol-2-yl)-2,5-diphenyl-tetrazolium bromide (MTT), and the other uses fluorimetry to measure the reduction of resazurin (Alamar Blue). […] Verification that these compounds act against each of the four serotypes of dengue was done with yield assays carried out at several drug concentrations, and the titer determined for each. […]

Series [3] can be described thus: Cytotoxicity (cell proliferation assay, MTT or Alamar Blue). Type of series: cell-based. The conditions noted are these: flag printed in the Activity column of Table 1. On the procedure:
Initially, the chemical structures of the hit compounds were examined for chemical tractability. […] Hits that passed this medicinal chemistry filter were evaluated for their potency. Compound potency was determined by evaluating inhibitory activity across a broad range of concentrations. Nonlinear regression was used to generate best-fit inhibition curves and to calculate the 50% effective concentration (EC50). The selectivity or specificity of a given compound is typically expressed as a ratio of its cytotoxicity to its biological effect. A cell proliferation assay is used to calculate a 50% cytotoxicity concentration (CC50); the ratio of this value to the EC50 is referred to as the therapeutic index (T.I.=CC50/EC50). Two types of assays have been used to determine cytotoxicity, both of which are standard methods for quantitating the reductase activity produced in metabolically active cells (30). One is a colorimetric method that measures the reduction of 3-(4,5-dimethylthiazol-2-yl)-2,5-diphenyl-tetrazolium bromide (MTT), and the other uses fluorimetry to measure the reduction of resazurin (Alamar Blue). […] Verification that these compounds act against each of the four serotypes of dengue was done with yield assays carried out at several drug concentrations, and the titer determined for each.

Series [4] has as its system dengue. The conditions noted are these: mouse model; cited from earlier work.
The subject of series [5] is dengue. Conditions: cited from earlier work.
Where [6] appears, read: Dengue-2 strain New Guinea C, Vero cells, MOI 0.1, harvested 48 hours post infection, viral yield.

Where two headings read alike, the source gives them in different places.

With `NC(=O)C1(N2CCCCC2)CCN(C(=O)CSc2nc3ccccc3o2)CC1` [Compound 3, 1′-[2-(Benzooxazol-2-ylsulfanyl)-acetyl]-[1,4′]bipiperidinyl-4′-carboxylic acid amide], the EC50 (as a rule, the concentration that produces a half-maximal response) in series [1] (Vero, 48 h) was under 1 µM. The “activity against dengue serotypes” value in series [2] was “activity against all four serotypes of dengue”.
With `O=C1CC(Sc2nc3ccccc3s2)C(=O)N1Cc1ccccc1` (centres unmarked) [Compound 4, 3-(Benzothiazol-2-ylsulfanyl)-1-benzyl-pyrrolidine-2,5-dione], in series [1] (setting [6]), the EC50 is under 1 µM. The “toxic (flag beside activity class)” value in series [3] was “toxic”.
The corresponding values for `COc1ccccc1C(=O)C1CCCN(C(=O)CSc2nc3cc(C)ccc3[nH]2)C1` (centres unmarked) [Compound 12, 1-[3-(2-Methoxy-benzoyl)-piperidin-1-yl]-2-(5-methyl-1H-benzoimidazol-2-ylsulfanyl)-ethanone] are 1 to 10 µM and “toxic”.
As to `O=C(CSc1nc2ccccc2s1)N1CCN(c2ccc(F)cc2)CC1` [Compound 71, 2-(Benzothiazol-2-ylsulfanyl)-1-[4-(4-fluoro-phenyl)-piperazin-1-yl]-ethanone], the EC50 in series [1] (setting [6]) was over 25 µM.
The same measure, in the same setting: the figure for `O=C(CSc1nc2ccccc2s1)N1CCN(C(c2ccccc2)c2ccccc2)CC1` [Compound 72, 1-(4-Benzhydryl-piperazin-1-yl)-2-(benzothiazol-2-ylsulfanyl)-ethanone] is over 25 µM; for `O=C(CSc1nc2ccc([N+](=O)[O-])cc2s1)N1CCN(c2cccc(Cl)c2)CC1` [Compound 73, 1-[4-(3-Chloro-phenyl)-piperazin-1-yl]-2-(6-nitro-benzothiazol-2-ylsulfanyl)-ethanone] it is over 25 µM.
Consider `O=C(CSc1nc2cc(Cl)ccc2o1)N1CCOCC1` [Compound 74, 2-(5-Chloro-benzooxazol-2-ylsulfanyl)-1-morpholin-4-yl-ethanone], for which the EC50 in series [1] (Vero, 48 h) is over 25 µM.
In the case of `CCCC(=O)Nc1ccc2nc(SCC(=O)N3CCN(c4ccccc4)CC3)sc2c1` [Compound 75, N-{2-[2-oxo-2-(4-phenyl-piperazin-1-yl)-ethylsulfanyl]-benzothiazol-6-yl}-butyramide], in series [1] (Vero, 48 h), the EC50 is over 25 µM.
In the case of `O=C(CSc1nc2ccccc2o1)N1CCN(c2ccccc2)CC1` [Compound 76, 2-(Benzooxazol-2-ylsulfanyl)-1-(4-phenyl-piperazin-1-yl)-ethanone], the EC50 in series [1] (Vero, 48 h) is over 25 µM.
Regarding `Nc1ccc2nc(SCC(=O)N3CCN(c4ccc(Cl)cc4)CC3)sc2c1` [Compound 77, 2-(6-Amino-benzothiazol-2-ylsulfanyl)-1-[4-(4-chloro-phenyl)-piperazin-1-yl]-ethanone], the EC50 in series [1] (setting [6]) is over 25 µM.
Still for that read-out and setting: then `Cc1ccc(-c2nnc(N3CCN(C(=O)CSc4nc5ccccc5o4)CC3)c3ccccc23)cc1` [Compound 78, 2-(Benzooxazol-2-ylsulfanyl)-1-[4-(4-p-tolyl-phthalazin-1-yl)-piperazin-1-yl]-ethanone], with over 25 µM; and `Cc1cccc(C)c1NC(=O)Cn1c(SCC(N)=O)nc2ccccc21` [Compound 79, 2-{1-[(2,6-Dimethyl-phenylcarbamoyl)-methyl]-1H-benzoimidazol-2-ylsulfanyl}-acetamide], with over 25 µM.
For `O=C(CSc1nc2ccccc2o1)N1CCN(c2ccc(Cl)cc2)CC1` [Compound 80, 2-(Benzooxazol-2-ylsulfanyl)-1-[4-(4-chloro-phenyl)-piperazin-1-yl]-ethanone], the EC50 in series [1] (Vero, 48 h) was over 25 µM.
As to `Cn1c(SCC(=O)N2CCc3ccccc3C2)nc2ccccc21` [Compound 81, 1-(3,4-Dihydro-1H-isoquinolin-2-yl)-2-(1-methyl-1H-benzoimidazol-2-ylsulfanyl)-ethanone], the EC50 in series [1] (setting [6]) was over 25 µM.
With `NC(=O)c1ncn([C@@H]2O[C@H](CO)[C@@H](O)[C@H]2O)n1` [ribavirin], the protection against dengue entry in series [4] and in series [5] (rhesus monkey model) was “did not show protection against dengue” each time. Further, in series [5] (animal model not specified in the sentence (mouse or rhesus monkey)), the adverse effects induced result is “induced anemia and thrombocytosis”.

These data come from patent US9029376B2, “Small molecule inhibitors for the treatment or prevention of dengue virus infection” (Siga Technologies, Inc., priority 2008, dated 2015).
